The values that follow come from ChEMBL document CHEMBL1201862, “PubChem BioAssay data set” (2004).

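Values below derive from 48-hour exposures of cells grown in 96-well plates, with endpoints linearly interpolated between the two concentrations bracketing the appropriate inhibition level. GI50 = concentration required for 50% inhibition of growth.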 Calls of active or inactive are those of the source. Cut-off read from the data, not from the text of the source: active = GI50 up to about 1.1 µM and inactive = higher. A value given as a limit tells only on which side of the number the result lay.

Among the test systems are A498; CCRF-CEM; DU-145; HCT-116; HOP-62; LOX IMVI; M14; MOLT-4; Malme-3M; NCI-H226; NCI-H460; OVCAR-3; OVCAR-8; PC-3; SK-MEL-5; SN12C; SNB-19; TK-10; U-251; UACC-257.
Holding throughout (test): NCI tumour cell line growth inhibition, 48 h

Take `Cc1cc(O)c(-c2cc(O)c(C)cc2O)cc1O`: the GI50 in the assay on A498 was 21 µM (inactive); in the assay with CCRF-CEM, 1.08 µM (active); in the assay with DU-145, 14.9 µM (inactive); with HCT-116, 5.55 µM (inactive); in the assay with HOP-62 it was 16.7 µM (inactive); in the assay with LOX IMVI it was 5.66 µM (inactive). Moreover, the GI50 in the assay on M14 was 7.67 µM (inactive); in the assay on MOLT-4, 2.06 µM (inactive); in the assay on Malme-3M, 11.1 µM (inactive); with NCI-H226, 18.7 µM (inactive); in the assay with NCI-H460 it was 18.7 µM (inactive); in the assay with OVCAR-3, 2.14 µM (inactive). Also, the GI50 with OVCAR-8 is 3.24 µM (inactive); in the assay on PC-3, 11.6 µM (inactive); in the assay with SK-MEL-5, 14.4 µM (inactive); in the assay on SN12C, 6.25 µM (inactive); in the assay with SNB-19, 18.9 µM (inactive); in the assay on TK-10, 5.93 µM (inactive). In addition, the GI50 in the assay on U-251 is 15 µM (inactive); with UACC-257 it was 7 µM (inactive).

As for `CCOC(=O)c1c(CN2CCNCC2)nc2ccc(Cl)cc2c1-c1ccccc1`, the GI50 is 7.26 µM (inactive) with A498; 2.51 µM (inactive) in the assay with CCRF-CEM; 16.2 µM (inactive) in the assay with DU-145; 3.07 µM (inactive) with HCT-116; 6.95 µM (inactive) with HOP-62; 1.85 µM (inactive) with LOX IMVI. The GI50 in the assay with M14 is 1.81 µM (inactive); in the assay with MOLT-4, 1.86 µM (inactive); in the assay with Malme-3M, 1.94 µM (inactive); in the assay on NCI-H226, 12.6 µM (inactive); with NCI-H460 it was 2.48 µM (inactive); in the assay with OVCAR-3 it was 6.95 µM (inactive). Also, the GI50 in the assay on OVCAR-8 is 4.21 µM (inactive); in the assay on PC-3 it was 2.54 µM (inactive); with SK-MEL-5, 1.42 µM (inactive); in the assay with SN12C, 4.92 µM (inactive); in the assay on SNB-19 it was 12.8 µM (inactive); with TK-10, 5.07 µM (inactive). Further, the values for the GI50 in the assay with U-251 and in the assay on UACC-257 were 12.9 µM (inactive) and 1.81 µM (inactive), respectively.

In the case of `Cn1nc2ccc3nccc(N4CCN(CCO)CC4)c3c2n1`, the GI50 with A498 is > 100 µM (inactive); with CCRF-CEM, 21.3 µM (inactive); in the assay on DU-145, > 100 µM (inactive); in the assay on HCT-116, > 100 µM (inactive); in the assay with HOP-62 it was > 100 µM (inactive); in the assay on LOX IMVI, 0.371 µM (active). For the same compound, the GI50 is > 100 µM (inactive) with M14; 31.7 µM (inactive) in the assay with MOLT-4; > 100 µM (inactive) with Malme-3M; > 100 µM (inactive) in the assay on NCI-H226; > 100 µM (inactive) in the assay on NCI-H460; > 100 µM (inactive) in the assay with OVCAR-3. Besides, the GI50 is > 100 µM (inactive) with OVCAR-8; 19.3 µM (inactive) in the assay with PC-3; > 100 µM (inactive) in the assay with SK-MEL-5; > 100 µM (inactive) with SN12C; > 100 µM (inactive) with SNB-19; > 100 µM (inactive) with TK-10. Also, the GI50 with U-251 and with UACC-257 was > 100 µM (inactive) throughout.

Regarding `CN(C)c1ccc(/C=N/c2ccc(-c3nc4ccccc4[nH]3)cc2)cc1`, the GI50 in the assay on A498 was 69.5 µM (inactive); in the assay with CCRF-CEM it was 37.7 µM (inactive); with DU-145 it was 65.8 µM (inactive); in the assay with HCT-116 it was 43.6 µM (inactive); in the assay on HOP-62, > 100 µM (inactive); with LOX IMVI it was 51.5 µM (inactive). The GI50 with M14 was > 100 µM (inactive); in the assay on MOLT-4, 25.7 µM (inactive); with Malme-3M, 24.3 µM (inactive); in the assay on NCI-H226 it was > 100 µM (inactive); in the assay with NCI-H460 it was 51.8 µM (inactive); in the assay on OVCAR-3 it was 71.1 µM (inactive). Further, the GI50 with OVCAR-8 is > 100 µM (inactive); with PC-3, 53.6 µM (inactive); in the assay with SK-MEL-5 it was 56.9 µM (inactive); in the assay on SN12C, 40.6 µM (inactive); in the assay on SNB-19, 40 µM (inactive); in the assay with TK-10 it was > 100 µM (inactive). Moreover, the values for the GI50 with U-251 and in the assay on UACC-257 were 39.2 µM (inactive) and > 100 µM (inactive), respectively.

Turning to `C[N+](C)(C)CCCCCc1c2nc(c(CCCCC[N+](C)(C)C)c3ccc([nH]3)c(CCCCC[N+](C)(C)C)c3nc(c(CCCCC[N+](C)(C)C)c4ccc1[nH]4)C=C3)C=C2`, the GI50 with A498, in the assay on CCRF-CEM, in the assay on DU-145, in the assay on HCT-116, in the assay with HOP-62 and in the assay with LOX IMVI was > 100 µM (inactive) each time. Moreover, the GI50 with M14 was > 100 µM (inactive); in the assay with MOLT-4, > 100 µM (inactive); in the assay with Malme-3M, > 100 µM (inactive); in the assay with NCI-H226, > 100 µM (inactive); in the assay with NCI-H460, 67.3 µM (inactive); in the assay with OVCAR-3, > 100 µM (inactive). Besides, the GI50 in the assay on OVCAR-8 is > 100 µM (inactive); with PC-3, > 100 µM (inactive); in the assay with SK-MEL-5, > 100 µM (inactive); in the assay on SN12C, > 100 µM (inactive); in the assay on SNB-19 it was > 100 µM (inactive); in the assay on TK-10, 11.3 µM (inactive). Also, the GI50 in the assay on U-251 and in the assay on UACC-257 was > 100 µM (inactive) each time.

With `CC1=C2C(=O)[C@H]3[C@@H](CC=C4C[C@@H](O)CC[C@@]43C)[C@@H]2CC[C@]12O[C@@H]1C[C@H](C)CN[C@H]1[C@H]2C` [JERVINE], the GI50 in the assay with A498 was > 41.2 µM (inactive); with CCRF-CEM, > 63.4 µM (inactive); in the assay with DU-145 it was > 100 µM (inactive); in the assay on HCT-116, > 46 µM (inactive); with HOP-62 it was > 39.5 µM (inactive); in the assay on LOX IMVI it was > 41.1 µM (inactive). The GI50 in the assay on M14 was > 41.7 µM (inactive); in the assay with MOLT-4 it was > 82.4 µM (inactive); in the assay with Malme-3M, > 50.4 µM (inactive); in the assay with NCI-H226, > 43.8 µM (inactive); in the assay on NCI-H460 it was > 44.8 µM (inactive); in the assay with OVCAR-3, > 40.6 µM (inactive). The GI50 in the assay on OVCAR-8 was > 47.1 µM (inactive); with PC-3, > 100 µM (inactive); in the assay on SK-MEL-5, > 39.8 µM (inactive); with SN12C it was > 43.4 µM (inactive); with SNB-19 it was > 41.7 µM (inactive); with TK-10, > 37.2 µM (inactive). Besides, the GI50 was > 41.4 µM (inactive) in the assay on U-251 and > 49.3 µM (inactive) in the assay with UACC-257.
